Reference: ChEMBL document CHEMBL6109157, “Tertiary Alcohol: Reaping the Benefits but Minimizing the Drawbacks of Hydroxy Groups in Drug Discovery” (J Med Chem, 2025)

Columns and labels:
[1] = Binding affinity to [125I] radiolabelled Angiotensin-2 receptor in bovine adrenal cortex membrane; type: cell membranes, Bos taurus
[2] = In vivo inhibition of Angiotensin II-induced pressor response in Wistar rat model at 0.3 mg/kg, po and measured for 6 hrs; type: functional
[3] = AUC in mouse at 50 mg/kg, po measured for 40 mins by LC-MS/MS analysis; type: ADME, organism-based; conditions: in vivo
Mus musculus [4] = assay: Dose normalized in AUC mouse at 50 mg/kg by LC-MS/MS analysis; type: ADME, organism-based; conditions: in vivo
[5] = target: Dual specificity mitogen-activated protein kinase kinase 1 (Homo sapiens, UniProt Q02750); assay: Inhibition of MEK1 (unknown origin) phosphorylation
Dual specificity mitogen-activated protein kinase kinase 1, sequence (Q02750 whole entry): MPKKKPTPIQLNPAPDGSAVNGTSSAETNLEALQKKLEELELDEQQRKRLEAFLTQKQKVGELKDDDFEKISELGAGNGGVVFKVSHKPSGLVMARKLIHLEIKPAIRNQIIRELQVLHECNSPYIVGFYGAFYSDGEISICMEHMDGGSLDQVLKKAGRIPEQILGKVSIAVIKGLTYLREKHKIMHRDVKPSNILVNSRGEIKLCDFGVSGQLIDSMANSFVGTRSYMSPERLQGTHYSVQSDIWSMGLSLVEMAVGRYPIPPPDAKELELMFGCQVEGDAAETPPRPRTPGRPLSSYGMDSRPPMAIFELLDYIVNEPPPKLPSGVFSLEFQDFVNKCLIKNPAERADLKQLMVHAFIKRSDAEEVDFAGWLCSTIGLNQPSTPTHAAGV

[6] = AUC in po dosed mouse at 25 mg/kg by LC-MS/MS analysis; type: ADME, organism-based; conditions: in vivo
Mus musculus [7] = assay: Dose normalized in AUC mouse at 25 mg/kg by LC-MS/MS analysis; type: ADME, organism-based; conditions: in vivo

Compound	IC50 [1]	inhibition in vivo at 0.3 mg/kg [2]	also measured
CCCc1nc(C(C)C)c(C(=O)O)n1Cc1ccc(-c2ccccc2-c2nn[nH]n2)cc1	46 nM		
Nc1nccn2c(C3CCC3)nc(-c3ccc4ccc(-c5ccccc5)nc4c3)c12			AUC [3]: 5170 ng·h/mL; AUC/dose (Mus musculus [4]): 103.4 ng·h/mL/mg/kg
O=C(c1ccc(F)c(F)c1Nc1ccc(I)cc1F)N1CC(O)([C@@H]2CCCCN2)C1 [COBIMETINIB]			IC50 [5]: 0.2 nM
C[C@]1(O)C[C@@H](c2nc(-c3ccc4ccc(-c5ccccc5)nc4c3)c3c(N)nccn32)C1 [LINSITINIB]			AUC [6]: 26700 ng·h/mL; AUC/dose (Mus musculus [7]): 1069.6 ng·h/mL/mg/kg
CCCc1nc(C(C)(C)O)c(C(=O)O)n1Cc1ccc(-c2ccccc2-c2nnn[nH]2)cc1 [OLMESARTAN]	8.1 nM	78%	

The next lines start with results.

IC50 [1]	Compound	inhibition in vivo at 0.3 mg/kg [2]	also measured
12 nM	CCCc1nc(CC)c(C(=O)O)n1Cc1ccc(-c2ccccc2-c2nn[nH]n2)cc1		
6.9 nM	CCCc1nc(CO)c(C(=O)O)n1Cc1ccc(-c2ccccc2-c2nn[nH]n2)cc1	65%	
11 nM	CCCc1nc(C)c(C(=O)O)n1Cc1ccc(-c2ccccc2-c2nn[nH]n2)cc1		
4.9 nM	CCCc1nc(C(C)O)c(C(=O)O)n1Cc1ccc(-c2ccccc2-c2nn[nH]n2)cc1 (centres undefined)	69%	
